The values that follow come from US7135467B2, “HIV integrase inhibitors” (priority 2003, dated 2006).

The target in data set [1] is T1, HIV-integrase (recombinant integrase) (Human immunodeficiency virus type 1 group M subtype B, UniProt P12497).
T1 construct: Recombinant integrase (0.26 ng) was incubated with the beads
In words: HIV-Integrase Inhibition Activity (SPA bead strand-transfer assay). Format: biochemical. The following applies: recombinant integrase on biotin labeled substrate DNA/SPA beads, P33 labeled target DNA; read-out: Activity (IC50 against HIV-integrase). A digest of the protocol:
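Recombinant integrase (0.26 ng) was bound for 90 min at 37° C to biotin-labelled substrate DNA (5 pmole) on streptavidin SPA beads. After washing, inhibitors and 0.1 fmol P33-labelled target DNA were added, and the reaction was stopped with 10 mM EDTA. Integration was measured as CPM.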

`Cn1c(N2CCCCS2(=O)=O)nc(C(=O)Nc2ccc(F)cc2)c(O)c1=O` [Compound 50, 2-(1,1-Dioxo-1λ^6-[1,2]thiazinan-2-yl)-5-hydroxy-1-methyl-6-oxo-1,6-dihydro-pyrimidine-4-carboxylic acid (4-fluoro-phenyl)-amide]: the melting point (as a rule, the temperature of the solid-liquid transition) was 285 to 291 °C (dec.). In addition, the IC50 (usually the concentration that gives 50% inhibition) in data set [1] was ≥ 1000 nM.

Take `Cn1c(N2CCOCC2)nc(C(=O)NCc2ccc(F)cc2)c(O)c1=O` [Compound 52, N-[(4-fluorophenyl)methyl]-1,6-dihydro-5-hydroxy-1-methyl-2-(4-morpholinyl)-6-oxo-4-pyrimidinecarboxamide]: the melting point fell in the range of 197 to 199 °C. Besides, the IC50 in data set [1] fell in the range of 3 to 100 nM.

Take `Cn1c(N2CCOCC2)nc(C(=O)NCc2ccc(Cl)c(Cl)c2)c(O)c1=O` [Compound 53, N-[(3,4-dichlorophenyl)methyl]-1,6-dihydro-5-hydroxy-1-methyl-2-(4-morpholinyl)-6-oxo-4-pyrimidinecarboxamide]: the melting point is 100 to 102 °C. In addition, in data set [1], the IC50 was in the range of 3 to 100 nM.

With `Cc1cc(CNC(=O)c2nc(N3CCOCC3)n(C)c(=O)c2O)ccc1F` [Compound 54, N-[(4-fluoro-3-methylphenyl)methyl]-1,6-dihydro-5-hydroxy-1-methyl-2-(4-morpholinyl)-6-oxo-4-pyrimidinecarboxamide], the melting point fell in the range of 182 to 185 °C. The IC50 in data set [1] fell in the range of 3 to 100 nM.

Take `Cc1ccc(CNC(=O)c2nc(N3CCOCC3)n(C)c(=O)c2O)cc1F` [Compound 55, N-[(3-fluoro-4-methylphenyl)methyl]-1,6-dihydro-5-hydroxy-1-methyl-2-(4-morpholinyl)-6-oxo-4-pyrimidinecarboxamide]: the melting point fell in the range of 166 to 167 °C. Moreover, the IC50 in data set [1] lay within 3 to 100 nM.

The compound `Cn1c(N2CCOCC2)nc(C(=O)NCc2ccc(F)c(Cl)c2)c(O)c1=O` [Compound 56, N-[(3-chloro-4-fluorophenyl)methyl]-1,6-dihydro-5-hydroxy-1-methyl-2-(4-morpholinyl)-6-oxo-4-pyrimidinecarboxamide] registered a melting point of 170 to 171 °C. The IC50 in data set [1] lay within 3 to 100 nM.

As to `Cc1ccc(CNC(=O)c2nc(N3CCOCC3)n(C)c(=O)c2O)cc1C` [Compound 57, N-[(3,4-dimethylphenyl)methyl]-1,6-dihydro-5-hydroxy-1-methyl-2-(4-morpholinyl)-6-oxo-4-pyrimidinecarboxamide], the melting point lay in the range of 164 to 166 °C. Further, the IC50 in data set [1] fell in the range of 3 to 100 nM.

Take `Cc1ncn(-c2nc(C(=O)NCc3ccc(Cl)c(Cl)c3)c(O)c(=O)n2C)n1` [Compound 59, N-[(3,4-dichlorophenyl)methyl]-1,6-dihydro-5-hydroxy-1-methyl-2-(3-methyl-1H-1,2,4-triazol-1-yl)-6-oxo-4-pyrimidinecarboxamide]: the melting point is 188 to 189 °C (dec.). The IC50 in data set [1] lay in the range of 3 to 100 nM.

The compound `Cc1ncn(-c2nc(C(=O)NCc3ccc(F)c(C)c3)c(O)c(=O)n2C)n1` [Compound 60, N-[(4-fluoro-3-methylphenyl)methyl]-1,6-dihydro-5-hydroxy-1-methyl-2-(3-methyl-1H-1,2,4-triazol-1-yl)-6-oxo-4-pyrimidinecarboxamide] showed a melting point of 204 to 205 °C. In data set [1], the IC50 was in the range of 3 to 100 nM.

Consider `Cc1ncnn1-c1nc(C(=O)NCc2ccc(F)cc2)c(O)c(=O)n1C` [Compound 61, N-[(4-fluorophenyl)methyl]-1,6-dihydro-5-hydroxy-1-methyl-2-(5-methyl-1H-1,2,4-triazol-1-yl)-6-oxo-4-pyrimidinecarboxamide], for which the melting point turned out to be 230 °C. Moreover, in data set [1], the IC50 lay within 100 to 1000 nM.

Turning to `Cn1c(N2Cc3ccc(F)cc3C2=O)nc(C(=O)NCc2ccc(F)cc2)c(O)c1=O` [Compound 102, 2-(6-fluoro-1,3-dihydro-1-oxo-2H-isoindol-2-yl)-N-[(4-fluorophenyl)methyl]-1,6-dihydro-5-hydroxy-1-methyl-6-oxo-4-pyrimidinecarboxamide], the half-maximal inhibitory concentration (IC50) in data set [1] lay in the range of 3 to 100 nM.
